# Reference: patent US5726162A (priority 1996, dated 1998)
# “And” between values parts separate entries of the source, which are not always exact repeats. Identical values can stand only once. Like-named read-outs stand apart in the source and are kept apart here.
# Tests used:
# fungal inoculum = experiment: organism not typed; format: cell-based; details: read-out: % growth inhibition
# [1] = tested on: Magnaporthe grisea (Pyricularia oryzae); experiment: whole plant or invertebrate; format: in vivo, Magnaporthe grisea (Pyricularia oryzae) on M201 rice plants; details: Pyricularia oryzae, 144 h, read-out: % Control RB
# [2] = tested on: Thanatephorus cucumeris (Rhizoctonia solani); experiment: In vivo test b) Rice Sheath Blight (RSB), 24 hour preapplication protectant, % control; details: protectant; for pest or weed control at 200 ppm: read-out: % Control RSB
# Procedure: Compounds were tested at 200 ppm as a twenty-four hour preapplication protectant test prior to inoculation.
# b) Rice Sheath Blight (RSB)
# Thanatephorus cucumeris (Rhizoctonia solani) mycelia were grown for six days in potato dextrose broth in shake culture. Drained mycelial mats were blended with an approximately equal weight of rice flour and five parts water. This slurry was dispensed onto the soil surface of pots containing rice seedlings previously treated with experimental compounds. The plants were placed in a mist chamber at 25°-28° C. for 48 hours. Following two more days at 25° C. and 70-90% relative humidity the plants were evaluated for percent disease control compared to check plants.
# Candida albicans = experiment: Activity against Candida albicans in microtiter plates, % control of growth; format: cell-based
# Procedure: The activity against Candida albicans was determined using the following test protocol.
# Conidia and mycelium from the Candida albicans culture maintained on potato dextrose agar plates were lightly scraped off into yeast extract-dextrose broth (YDB) so that mostly conidia was used as inoculum. The conidial suspsension was strained through a double layer of cheesecloth to remove mycelial clumps. The inoculum mixture was placed in microtiter plates using a 12-tipped pipet. 175 microliters were placed in each well of the microliter plates and the plates were placed in the refrigerator overnight. There were two replications.
# The compounds to be tested were dissolved in 1:1 acetone:methanol and 100 ppm of the compound solution were placed in a well of the prepared microtiter plates.
# The microtiter plates were incubated for 7 days at room temperature after addition of the compounds. Percent control was visually estimated using a microtiter plate reading mirror. Readings were made at 1, 2, 3, and/or 7 days after treatment.
# Pyricularia oryzae [3] = format: in vivo, Pyricularia oryzae on M-201 rice plants; details: protectant
# fungal mycelium = experiment: organism not typed; format: cell-based; details: read-out: % growth inhibition
# Pyricularia oryzae [4] = format: in vivo, Pyricularia oryzae on M-201 rice plants; details: curative
# Septoria nodorum = experiment: Wheat Septoria preventative experiments (single fungicides and combinations); format: in vivo, Septoria nodorum on Fielder wheat plants
# Procedure: (§1) The experiments below were performed using the relevant following procedures.
# (§2) Experimental compounds and commercial fungicides were tank mixed and mechanically sprayed at varying concentrations in a 1:1:2 mixture of acetone, methanol and water. Protective or preventive sprays were applied one day before spore inoculation. Curative or post-infection sprays were applied one day after spore inoculation. The spraying system utilized delivered a 200 ppm dose at the rate of 1458 liters per hectare. The following details were applicable for the specified diseases:
# Fielder wheat plants were inoculated with Septoria nodorum conidia. The spore concentration was approximately 3,000,000 conidia per milliliter in water. An atomizer was used to apply twenty milliliters of inoculum to twenty plants per flat. The plants were placed in a humidity cabinet at 100% relative humidity for 72 hours and then placed in a greenhouse. Evaluations were made 10 days after inoculation.
# (§3) "Disease control" was recorded as percent control based on a comparison of the unsprayed, inoculated controls and the treated, inoculated plants.
# Boytrytis cinerea = experiment: Tomato Botrytis protective experiments (single fungicides and combinations); format: in vivo, Boytrytis cinerea on Pixie tomato plants
# Procedure: as §1, §2
# Three week-old "Pixie" tomato plants were inoculated with Boytrytis cinerea conidia. The plants were held in dim light for two days prior to inoculation. The spore concentration was 500,000 to 650,000 conidia per milliliter of dextrose solution. An atomizer was used to apply the conidial suspension in a heavy coating to near runoff to both the upper and lower leaf surfaces and to the plant stem. The plants were kept in a continuous mist chamber with a day-night cycle and at 20 degrees centigrade for 5 days.
# as §3
# [5] = 24 h, 1 day after treatment, read-out: % control of growth +1
# [6] = 48 h, 2 days after treatment, read-out: % control of growth +2
# [7] = 72 h, 3 days after treatment, read-out: % control of growth +3
# [8] = 168 h, 7 days after treatment, read-out: % control of growth +7
Compound,pest or weed control at 200 ppm [1],pest or weed control at 200 ppm [2],inhibition of growth at 100 ppm (Candida albicans; [5]),inhibition of growth at 100 ppm (Candida albicans; [6]),inhibition of growth at 100 ppm (Candida albicans; [7]),"% Disease Control, Observed (Pyricularia oryzae [3]; 50 ppm alone)","% Disease Control, Observed (Pyricularia oryzae [3]; 200 ppm alone)",further results
"CCC#CCN1N=C(c2ccc(Cl)cc2)CCC1=O [Compound 12, 6-(4-chlorophenyl)-2-(2'-pentynyl)-4,5-dihydropyridazinone]",99%,50%,100%,100%,100%,50%,50%,"inhibition at 1 ppm (fungal inoculum): 96%; inhibition of growth at 100 ppm (Candida albicans; [8]): 100%; % Disease Control, Observed (Pyricularia oryzae [3]; 12 ppm alone): 0%"
CC#CCN1N=C(c2ccc(Cl)cc2Cl)CCC1=O [Compound 19],50%,0%,,,,,,inhibition at 100 ppm (fungal inoculum): 96.8%
CC#CCN1N=C(c2ccc(OC)c(F)c2)CCC1=O [Compound 20],0%,0%,,,,,,inhibition at 10 ppm (fungal inoculum): 100%
CC#CCCN1N=C(c2ccc(Cl)cc2)CCC1=O [Compound 21],0%,0%,,,,,,inhibition at 100 ppm (fungal inoculum): 45.8%
C#CC=CCN1N=C(c2ccc(Cl)cc2)CCC1=O [Compound 84],95%,0%,,,,,,inhibition at 50 ppm (fungal inoculum): 75.8%
C=CC#CCN1N=C(c2ccc(Cl)c(F)c2)CCC1=O [Compound 100],100%,0%,100%,100%,100%,,,inhibition at 0.16 ppm (fungal mycelium): 100%
CC#CCn1nc(-c2ccc(Cl)cc2)ccc1=O [Compound 108],95%,50%,,,,,,inhibition at 5 ppm (fungal inoculum): 100%
"CCC#CCn1nc(-c2ccc(Cl)cc2)ccc1=O [Compound 109, 6-(4-chlorophenyl)-2-(2'-pentynyl)pyridazinone]",99%,100%,100%,100%,100%,0%,99% and 80%,"inhibition at 1 ppm (fungal mycelium): 100%; inhibition of growth at 100 ppm (Candida albicans; [8]): 100%; % Disease Control, Observed (Pyricularia oryzae [3]; 12 ppm alone): 0%; % Disease Control, Observed (Pyricularia oryzae [4]; 12 ppm alone): 0%; % Disease Control, Observed (Pyricularia oryzae [4]; 50 ppm alone): 50%; % Disease Control, Observed (Pyricularia oryzae [4]; 200 ppm alone): 80%; % Disease Control, Observed (Septoria nodorum; 12 ppm alone): 0%; % Disease Control, Observed (Septoria nodorum; 50 ppm alone): 50%; % Disease Control, Observed (Septoria nodorum; 200 ppm alone): 50%; % Disease Control, Observed (Boytrytis cinerea; 50 ppm alone): 0%; % Disease Control, Observed (Boytrytis cinerea; 200 ppm alone): 75%"
C=CC#CCn1nc(-c2ccc(Cl)cc2)ccc1=O [Compound 119],,,100%,100%,100%,,,inhibition at 5 ppm (fungal inoculum): 99.3%; pest or weed control at 100 ppm [1]: 95%; pest or weed control at 100 ppm [2]: 0%; inhibition of growth at 100 ppm (Candida albicans; [8]): 100%
C=CC#CCn1nc(-c2ccc(Cl)c(F)c2)ccc1=O [Compound 128],95%,0%,100%,100%,100%,,,inhibition at 0.156 ppm (fungal mycelium): 100%
"CCC#CCn1cc(-c2ccc(Cl)cc2)ccc1=O [Compound 145, 5-(4-chlorophenyl)-1-(2-pentyn-1-yl)-2-pyridinone]",95%,,,,,,,inhibition at 1 ppm (fungal inoculum): 96%; pest or weed control at 100 ppm [2]: 0%
CCC#CCn1cc(-c2ccc(Cl)cc2)cnc1=O [Compound 150],99%,95%,,,,,,inhibition at 50 ppm (fungal inoculum): 48.2%
"C=CC#CCN1N=C2c3ccc(Cl)cc3CC2CC1=O (stereo not drawn) [Compound 156, 7-chloro-2,4,4a,5-tetrahydro-2-(2-pentyn-4-ene-1-yl)-indeno [1,2-c]-pyridazin-3-one]",100%,95%,100%,100%,100%,,,inhibition at 1 ppm (fungal mycelium): 100%
"CCC#CCN1N=C(c2ccc(Cl)cc2)OCC1=O [Compound 161, 2-(4-chlorophenyl)-4-(2-pentyn-1-yl)-4H,6H-1,3,4-oxadiazin-5-one]",99%,0%,100%,100%,100%,,,inhibition at 1 ppm (fungal mycelium): 75.9%
N#Cc1c(Cl)c(Cl)c(Cl)c(C#N)c1Cl [chlorothalonil],,,,,,0%,99%,"% Disease Control, Observed (Pyricularia oryzae [3]; 12 ppm alone): 0%"
"N#CC(CCc1ccc(Cl)cc1)(Cn1cncn1)c1ccccc1 (stereo not drawn) [fenbuconazole, alpha-[2-(4-chlorophenyl)ethyl]-alpha-phenyl-1H-1,2,4-triazole-1-propanenitrile]",,,,,,,,"% Disease Control, Observed (Boytrytis cinerea; 6 ppm alone): 50%; % Disease Control, Observed (Boytrytis cinerea; 25 ppm alone): 75%; % Disease Control, Observed (Boytrytis cinerea; 50 ppm alone): 75%"
"CC(C)NC(=O)N1CC(=O)N(c2cc(Cl)cc(Cl)c2)C1=O [iprodione, reference compound]",,,,,,,,"% Disease Control, Observed (Septoria nodorum; 12 ppm alone): 0%; % Disease Control, Observed (Septoria nodorum; 50 ppm alone): 0%; % Disease Control, Observed (Septoria nodorum; 200 ppm alone): 50%"
C=CCOC1=NS(=O)(=O)c2ccccc21 [probenazole],,,,,,0%,0%,"% Disease Control, Observed (Pyricularia oryzae [3]; 12 ppm alone): 0%"
O=C1CCc2cccc3c2N1CC3 [pyroquilon],,,,,,0%,85%,"% Disease Control, Observed (Pyricularia oryzae [3]; 12 ppm alone): 0%"
mancozeb [reference compound],,,,,,75%,99%,"% Disease Control, Observed (Pyricularia oryzae [4]; 50 ppm alone): 0%; % Disease Control, Observed (Pyricularia oryzae [4]; 200 ppm alone): 0%"
